# Measurements as given in US20090270479A1, “Genetic and Epigenetic Alterations In the Diagnosis and Treatment of Cancer” (priority 2005, published 2009).
# T1: p107 (human, UniProt P28749 1-1068)
# T1 sequence (looked up): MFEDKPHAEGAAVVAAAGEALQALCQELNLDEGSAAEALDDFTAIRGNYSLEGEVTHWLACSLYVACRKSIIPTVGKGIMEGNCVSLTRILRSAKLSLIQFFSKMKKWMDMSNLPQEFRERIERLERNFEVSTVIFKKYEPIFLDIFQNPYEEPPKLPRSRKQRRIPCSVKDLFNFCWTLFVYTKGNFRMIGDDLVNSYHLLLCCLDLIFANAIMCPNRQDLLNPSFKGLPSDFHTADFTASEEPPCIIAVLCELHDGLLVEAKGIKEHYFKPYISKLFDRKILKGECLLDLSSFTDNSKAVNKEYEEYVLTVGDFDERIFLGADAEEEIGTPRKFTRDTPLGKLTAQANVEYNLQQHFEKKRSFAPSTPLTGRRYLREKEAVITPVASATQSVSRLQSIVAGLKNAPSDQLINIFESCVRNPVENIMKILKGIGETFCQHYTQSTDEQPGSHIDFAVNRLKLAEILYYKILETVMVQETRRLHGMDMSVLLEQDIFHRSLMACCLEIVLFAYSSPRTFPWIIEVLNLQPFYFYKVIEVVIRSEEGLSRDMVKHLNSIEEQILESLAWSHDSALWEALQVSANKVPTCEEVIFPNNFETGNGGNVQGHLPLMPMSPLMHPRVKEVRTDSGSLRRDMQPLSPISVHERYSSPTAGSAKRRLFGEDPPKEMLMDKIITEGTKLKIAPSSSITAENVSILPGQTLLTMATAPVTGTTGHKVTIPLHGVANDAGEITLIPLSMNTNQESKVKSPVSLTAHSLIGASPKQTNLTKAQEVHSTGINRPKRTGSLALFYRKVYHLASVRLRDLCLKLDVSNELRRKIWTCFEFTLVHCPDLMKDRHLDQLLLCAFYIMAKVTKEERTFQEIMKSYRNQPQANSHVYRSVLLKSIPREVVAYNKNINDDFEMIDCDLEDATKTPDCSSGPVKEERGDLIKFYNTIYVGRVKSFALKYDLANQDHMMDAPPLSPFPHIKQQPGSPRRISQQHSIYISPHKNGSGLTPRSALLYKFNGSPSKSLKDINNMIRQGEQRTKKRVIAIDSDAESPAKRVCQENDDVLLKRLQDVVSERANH
# Columns and labels:
# Weri-Rb1 cells [1] = assay: Cell viability (MTT) / proliferation of Weri-Rb1 cells; assay type: cell-based, human; details: 2.5 μM, after 96 h of treatment, vs untreated
# Procedure: (§1) Weri-Rb1 cell line and 5-Aza-2-dc DNA methyltransferase inhibitor treatment—Human retinoblastoma cell line (Weri-Rb1 ) obtained from the American Type Culture Collection (ATCC, Manassas, Va., USA) was cultured in RPMI 1640 supplemented with 10% FCS at spin ratio of 1:2 once a week. A volume of […] of 5-Aza-2-dc, a DNA methyltransferase inhibitor (Sigma-Aldrich, St. Louis, Mo., USA) was added to medium culture of treated cells.
# (§2) Cell viability (MTT) and FACS analysis—Quantitative cell viability was measured by colorimetric assay using a cell proliferation kit (MTT) (Roche Molecular Biochemicals, Mannheim, Germany). A total of 5000 cells/well Weri-Rb1 and 5-Aza-2-dc-treated Weri-Rb1 were grown in microtiter plates (96-well) in a final volume of 100 μl culture medium. The incubation period of cell culture was 24, 48 and 96 h in the presence or absence of the 2.5 μM DNA methyltransferase inhibitor. After incubation period, 10 μl MTT labeling reagent was added to each well to a final concentration […]. MTT is cleaved by growing cells to form formazan crystals which allows quantification of cell viability by spectrdphotometric analysis (ELISA) at 550 nm. Cell viability was expressed as the percentage of the absorbance of drug-treated and untreated cells relative to that of the untreated cells of 0 h. […]
# Weri-Rb1 cells [2] = assay: FACS analysis of 5-Aza-2-dc treated Weri-Rb1 cells; assay type: cell-based, human; details: 2.5 μM
# Procedure: as §1, §2
# [3] = tested on: pRb2/p130 expression in Weri-Rb1 cells; assay: Western blot of pRb2/p130 in treated Weri-Rb1 cells; assay type: cell-based, human; details: Weri-Rb1 whole cell lysates, treated 24-96 h, vs untreated control after 96 h culture
# Procedure: as §1
# Western blotting—Western blot analysis of pRb/p105 and pRb2/p130 was performed on three fresh samples of primary tumors (samples 8-10). Weri-Rb1 cells and one normal retina sample, obtained from a patient who underwent enucleation for painful absolute glaucoma, served as an experimental control. Fresh tissues were immediately frozen in liquid nitrogen. Furthermore, Weri-Rb1 cells treated and untreated with 5-Aza-2-dc at various times were processed for Western blot analysis. Whole tissues lysates were prepared by resuspending homogenized tissues and pelleted cells in lysis buffer (50 mM Tris/HCl, 5 mM EDTA, 250 mM NaCl, 50 mM NaF, 0.1% Triton X-100, 0.1 mM Na3VO4 plus fresh inhibitors). Equal amounts of 100 μg of total extracts were loaded and resolved on a 7 or 10% SDS-PAGE. The gels were then transferred onto a nitrocellulose filter and checked by using 0.1% Ponceau red. […]
# [4] = tested on: RB2/p130 mRNA in H23 cells; assay: Multiplex RT-PCR of RB2/p130 mRNA in treated H23 cells; assay type: cell-based, human; details: 2.5 μM, beginning at 48 hours after treatment, vs basal level
# Procedure: (§3) Cell cultures and treatment—Cell lines were purchased from the American Type Culture Collection (Rockville, Md.). The cells were cultured in DMEM or RPMI1640 medium supplemented with 10% fetal bovine serum and 2 mM L-glutamine. For treatment, cells were seeded at a density of 5×10^5 cells/100-mm tissue culture dish. 2.5 μM of DNA methyltransferase inhibitor (5-AZA-2-deoxicytidine) was added to the culture medium for up 96 hours.
# Multiplex RT-PCR—Multiplex RT-PCR analysis was carried out with 0.2 μg of total RNA from treated and untreated H23 cells. PCR was performed using RB2/p130 primers and β-actin specific primers (SuperScript RT-PCR System, Invitrogen).
# [5] = tested on: pRb2/p130 protein in H23 cells; assay: Western blot of pRb2/p130 in treated H23 cells; assay type: cell-based, human; details: 2.5 μM, observed at 72 hours, maximum at 96 hours
# Procedure: as §3
# Western blot analysis of pRb2/p130 was performed using total protein lysates from untreated and 5-AZA-2-deoxicytidine treated H23 cells. Whole cell lysates were prepared in lysis buffer (50 mM Tris/HCl, 5 mM EDTA, 250 mM NaCl, 50 mM NaF, 0.1% Triton-X, 0.1 mM Na3VO4 plus fresh inhibitors). Equal amounts of 100 μg of total extracts were loaded and resolved on a 7% SDS-PAGE. The gels were then transferred onto a nitrocellulose filter and checked by using 0.1% Ponceau red. The monoclonal anti-pRb2/p130 (Transduction Laboratories, Ky., USA) was used at a dilution of 1:800.
# p107 = target: T1, p107; assay: co-immunoprecipitation with anti-PAI-2 antibody from nuclear and cytoplasmic lysates of primary human corneal and conjunctival epithelial cells, Western blot with anti-p107
# Text: Western blot and chromatin immuoprecipitation assay—Cytoplasmic and nuclear proteins were extracted from 12 couples of paired normal human corneal and conjunctival epithelial cells by using the PARIS kit (Ambion) according to the manufacturer's instructions. Efficient cytoplasmic and nuclear fractionation was confirmed by Western blotting analysis using anti-GAPDH antibody for the cytoplasmic fraction and anti Oct-1 antibody for the nuclear fraction. Immunoprecipitation experiments were performed using the cytoplasmic and nuclear fractions with PAI-2 as immunoprecipitating antibody (N-18, Santa Cruz Biotechnology, Calif.). The presence of pRb2/p130, Rb1/p105 and p107 in both PAI-2 nuclear and cytoplasmic precipitates was assessed with anti-pRb2/p130, anti-Rb1/p105 and p107 antibodies (211.6, C-15 and C-18, respectively; Santa Cruz Biotechnology, Calif.) by Western blotting.
# In order to assess whether PAI-2 associated with the retinoblastoma family proteins, PAI-2 was immunoprecipitated from nuclear and cytoplasmic lysates of twelve paired couples of normal primary human corneal and conjunctival epithelial cells. The immunoprecipitates were then analyzed by Western blotting using anti-pRb2/p130, anti-Rb1/p105, anti-p107 and anti-PAI-2 antibodies. For all the cell lines analyzed, anti-PAI-2 antibody co-immunoprecitated pRb2/p130 and Rb1/p105 from both nuclear and cytoplasmic fractions. […]
# [6] = listed as 5-AZA-2-deoxycytidine
Molecule,number of cells (proliferation rate) (Weri-Rb1 cells [1]),"amount of apoptotic cells (Weri-Rb1 cells [2]; 96 h, % of treated cells (control 6%)) [%]","G1 arrested cells (Weri-Rb1 cells [2]; after 24 h, % of treated cells (control 30%)) [%]",expression of endogenous pRb2/p130 [3],RB2/p130 mRNA level [4],"RB2/p130 mRNA level [4, 6]","pRb2/p130 protein level, active hypophosphorylated form [5]","pRb2/p130 protein level, active hypophosphorylated form [5, 6]",binding result (p107)
"Nc1ncn([C@H]2C[C@H](O)[C@@H](CO)O2)c(=O)n1 [5-Aza-dC, 5-Aza-2-deoxycytidine]",markedly reduced,20,40,increased expression,increase,increased,increase,increased,
"plasminogen activator inhibitor type-2 (other, human, UniProt P05120 1-415, looked up, Endogenous protein, immunoprecipitated with anti-PAI-2 antibody; also called PAI-2) MEDLCVANTLFALNLFKHLAKASPTQNLFLSPWSISSTMAMVYMGSRGSTEDQMAKVLQFNEVGANAVTPMTPENFTSCGFMQQIQKGSYPDAILQAQAADKIHSSFRSLSSAINASTGNYLLESVNKLFGEKSASFREEYIRLCQKYYSSEPQAVDFLECAEEARKKINSWVKTQTKGKIPNLLPEGSVDGDTRMVLVNAVYFKGKWKTPFEKKLNGLYPFRVNSAQRTPVQMMYLREKLNIGYIEDLKAQILELPYAGDVSMFLLLPDEIADVSTGLELLESEITYDKLNKWTSKDKMAEDEVEVYIPQFKLEEHYELRSILRSMGMEDAFNKGRANFSGMSERNDLFLSEVFHQAMVDVNEEGTEAAAGTGGVMTGRTGHGGPQFVADHPFLFLIMHKITNCILFFGRFSSP",,,,,,,,,no binding
